# Patent publication US11292807B2 (OCEANS LTD., priority 2015, dated 2022)
# Where two headings read alike, the source gives them in different places.
# Key:
# [1] = test system: PC3; conditions: human, 72 h, 1 ug/mL
# [2] = test system: MDA-MB; conditions: for Fold change in viability AVG / MDA-MB AVG: MDA-MB; for Average cell viability: human, 72 h
# [3] = test system: MDA-MB; assay: cells; conditions: Homo sapiens, read-out: Average cell viability, MDA-MB
# [4] = test system: PC3; assay: CIMA assay, cell viability, PC3
# [5] = test system: U373 (glioblastoma-astrocytoma); assay: CIMA assay, cell viability, U373
# Procedure: (§1) Stock solutions of the extracts were prepared in dimethylsulfoxide (DMSO) at 10 mg/mL and stored in 200 μl aliquots at −20° C. until analysis. This preparation ensured that the DMSO delivered to cells in culture never exceeded 1%.
# (§2) Prepared extracts were assessed following chronic exposure conditions in which cells were seeded at 2×10^3 cells/well (96 well-plate) and incubated with test compounds for 72 h. Each compound was evaluated over a range of concentrations (0, 10, 25, 50 or 100 μg/ml). Cell proliferation was initially assessed using a standard colorimetric indicator of metabolic activity (CIMA) assay. In this assay, tetrazole reduction was evaluated as a measure of metabolic function that evaluates mitochondrial activity to determine the extent of cell proliferation within a culture. This assay is based on the reduction of yellow tetrazolium salt to purple formazan by mitochondrial reductases enzyme in viable cells, resulting in a color changed that confers a change in absorbance.
# [6] = test system: SKOV3 (ovarian adenocarcinoma); assay: CIMA assay, cell viability, SKOV3; conditions: for Fold change in viability AVG: SKOV
# Procedure: as §1, §2
# [7] = 10 ug/mL, listed as 169-14-15-4
# [8] = 10 ug/mL, listed as 174-13-14-3
# [9] = 50 ug/mL, listed as 169-14-15-4
# [10] = U373, 1 ug/mL, listed as 169-14-15-4
# [11] = U373, 1 ug/mL, listed as 174-13-14-3
# [12] = U373, 10 ug/mL, listed as 169-14-15-4
# [13] = U373, 10 ug/mL, listed as 174-13-14-3
# [14] = U373, 50 ug/mL, listed as 169-14-15-4
# [15] = U373, 50 ug/mL, listed as 174-13-14-3
smiles,measurement,setting,value
"CC/C=C\C/C=C\C/C=C\C/C=C\C/C=C\CCCC(=O)OCC(COC1OC(CO)C(O)C(O)C1O)OC(=O)CCCCCCCCCCCCCCC (stereo not shown) [Compound 2, MGDG C20:5/C16:0]",Average cell viability,[1],97%
same,Fold change in viability AVG,"[2]; 1 ug/mL, listed as 169-14-15-4",1.09
same,Fold change in viability AVG,"[2]; 1 ug/mL, listed as 174-13-14-3",1.11
same,Fold change in viability AVG,[2]; [7],1.09
same,Fold change in viability AVG,[2]; [8],0.90
same,Fold change in viability AVG,[2]; [9],0.49
same,Fold change in viability AVG,"[2]; 50 ug/mL, listed as 174-13-14-3",0.23
same,Fold change in viability AVG,"[2]; 100 ug/mL, listed as 169-14-15-4",0.24
same,Fold change in viability AVG,"[2]; 100 ug/mL, listed as 174-13-14-3",0.22
same,MDA-MB AVG,"[2]; sample at 1 ug/mL, listed as 169-14-15-4",1.09
same,MDA-MB AVG,"[2]; sample at 1 ug/mL, listed as 174-13-14-3",1.11
same,MDA-MB AVG,"[2]; sample at 10 ug/mL, listed as 169-14-15-4",1.09
same,MDA-MB AVG,"[2]; sample at 10 ug/mL, listed as 174-13-14-3",0.90
same,MDA-MB AVG,"[2]; sample at 50 ug/mL, listed as 169-14-15-4",0.49
same,MDA-MB AVG,"[2]; sample at 50 ug/mL, listed as 174-13-14-3",0.23
same,MDA-MB AVG,"[2]; sample at 100 ug/mL, listed as 169-14-15-4",0.24
same,MDA-MB AVG,"[2]; sample at 100 ug/mL, listed as 174-13-14-3",0.22
same,Average cell viability,[2]; 1 ug/mL,102%
same,Average cell viability,[2]; 10 ug/mL,83%
same,Average cell viability,[2]; 100 ug/mL,20%
same,viability at 1 µg/mL,[3]; 1 ug/mL,100%
same,viability at 10 µg/mL,[3]; 10 ug/mL,101%
same,viability at 100 µg/mL,[3]; 100 ug/mL,22%
same,viability at 1 µg/mL,"[4]; Homo sapiens, PC-3, read-out: Average cell viability, PC3, 1 ug/mL",107%
same,Fold change in viability AVG,"[4]; PC3, 1 ug/mL, listed as 169-14-15-4",1.11
same,Fold change in viability AVG,"[4]; PC3, 1 ug/mL, listed as 174-13-14-3",1.00
same,Fold change in viability AVG,"[4]; PC3, 10 ug/mL, listed as 169-14-15-4",0.93
same,Fold change in viability AVG,"[4]; PC3, 10 ug/mL, listed as 174-13-14-3",0.71
same,Fold change in viability AVG,"[4]; PC3, 50 ug/mL, listed as 169-14-15-4",0.51
same,Fold change in viability AVG,"[4]; PC3, 50 ug/mL, listed as 174-13-14-3",0.05
same,Fold change in viability AVG,"[4]; PC3, 100 ug/mL, listed as 169-14-15-4",0.15
same,Fold change in viability AVG,"[4]; PC3, 100 ug/mL, listed as 174-13-14-3",0.05
same,PC3 AVG,"[4]; PC3, sample at 1 ug/mL, listed as 169-14-15-4",1.11
same,PC3 AVG,"[4]; PC3, sample at 1 ug/mL, listed as 174-13-14-3",1.00
same,PC3 AVG,"[4]; PC3, sample at 10 ug/mL, listed as 169-14-15-4",0.93
same,PC3 AVG,"[4]; PC3, sample at 10 ug/mL, listed as 174-13-14-3",0.71
same,PC3 AVG,"[4]; PC3, sample at 50 ug/mL, listed as 169-14-15-4",0.51
same,PC3 AVG,"[4]; PC3, sample at 50 ug/mL, listed as 174-13-14-3",0.05
same,PC3 AVG,"[4]; PC3, sample at 100 ug/mL, listed as 169-14-15-4",0.15
same,PC3 AVG,"[4]; PC3, sample at 100 ug/mL, listed as 174-13-14-3",0.05
same,viability at 100 µg/mL,"[5]; Homo sapiens, U373 MG, read-out: Average cell viability, U373, 100 ug/mL",8%
same,Average cell viability,[5]; [10],106%
same,Fold change in viability AVG,[5]; [10],1.08
same,Average cell viability,[5]; [11],85%
same,Fold change in viability AVG,[5]; [11],0.86
same,Average cell viability,[5]; [12],94%
same,Fold change in viability AVG,[5]; [12],0.95
same,Average cell viability,[5]; [13],73%
same,Fold change in viability AVG,[5]; [13],0.74
same,Average cell viability,[5]; [14],30%
same,Fold change in viability AVG,[5]; [14],0.30
same,Average cell viability,[5]; [15],13%
same,Fold change in viability AVG,[5]; [15],0.13
same,U373 AVG,"[5]; U373, sample at 1 ug/mL, listed as 169-14-15-4",1.08
same,U373 AVG,"[5]; U373, sample at 1 ug/mL, listed as 174-13-14-3",0.86
same,U373 AVG,"[5]; U373, sample at 10 ug/mL, listed as 169-14-15-4",0.95
same,U373 AVG,"[5]; U373, sample at 10 ug/mL, listed as 174-13-14-3",0.74
same,U373 AVG,"[5]; U373, sample at 50 ug/mL, listed as 169-14-15-4",0.30
same,U373 AVG,"[5]; U373, sample at 50 ug/mL, listed as 174-13-14-3",0.13
same,U373 AVG,"[5]; U373, sample at 100 ug/mL",0.08
same,Fold change in viability AVG,"[5]; U373, 100 ug/mL",0.08
same,viability at 50 µg/mL,"[6]; Homo sapiens, SK-OV-3, read-out: Average cell viability, SKOV, 50 ug/mL",67%
same,Fold change in viability AVG,"[6]; 1 ug/mL, listed as 169-14-15-4",1.16
same,Fold change in viability AVG,"[6]; 1 ug/mL, listed as 174-13-14-3",0.89
same,Fold change in viability AVG,[6]; [7],1.02
same,Fold change in viability AVG,[6]; [8],0.72
same,Fold change in viability AVG,[6]; [9],0.72
